Values joined by “and” are separate entries in the source; they are usually repeats but may differ in a detail not shown here. Identical values can stand only once.
Molecular target: T1, Olfr2 (Mus musculus, UniProt Q9QWU6)
T1 sequence (Q9QWU6 1-327): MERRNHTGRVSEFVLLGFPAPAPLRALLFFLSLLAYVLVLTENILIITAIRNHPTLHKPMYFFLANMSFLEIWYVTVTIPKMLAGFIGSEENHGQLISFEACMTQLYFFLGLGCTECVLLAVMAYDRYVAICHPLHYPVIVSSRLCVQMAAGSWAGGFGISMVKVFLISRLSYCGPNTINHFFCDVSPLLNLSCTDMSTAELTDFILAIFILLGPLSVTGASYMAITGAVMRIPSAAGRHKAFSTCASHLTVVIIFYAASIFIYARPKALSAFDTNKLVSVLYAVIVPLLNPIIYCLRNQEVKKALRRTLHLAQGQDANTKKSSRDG
Experiment: En face atherosclerosis quantification in Apoe−/− mice fed western diet
Type: in vivo
Set-up: Olfr2 expression was confirmed at the protein level on F4/80^+ vascular macrophages; from tissue; host or cells: explanted whole aortas, digested aortic cell suspensions (F4/80+ vascular macrophages) and blood monocytes of Apoe-/- C57BL/6J mice; living Apoe-/- mice for the in vivo study
Settings: for atherosclerosis in mice: summary of in vivo injection experiments
Experimental: The effect of citral on atherosclerosis in Apoe−/− mice fed a high fat western diet, a widely used model of atherosclerosis, was investigated. Briefly, ApoE^−/− Mice (10 weeks old) were fed WD for 4 weeks before the inhibitor treatment, citral, was started. Citral at 10 mg/kg was diluted in 100 uL of PBS and injected I.P. every 3 days for 4 weeks for a total of 12 injections. During this time, mice continue to eat WD for a total of 8 weeks. […] Thus, blocking Olfr2 is anti-atherosclerotic, showing that Olfr2 contributes to atherosclerosis.
To test a possible impact of Olfr2 on atherosclerosis in vivo, male Apoe^−/− mice were fed WD for 8 weeks and injected octanal (10 μg/g) intraperitoneally for the last 4 weeks every three days for a total of 12 injections. […] Octanal had no effect on total cholesterol, LDL cholesterol, HDL cholesterol or triglycerides (FIG. 11A). Similarly, in a loss-of-function experiment, male Apoe^−/− mice were treated with citral (10 μg/g, 12 injections over 4 weeks), which reduced the size of atherosclerotic lesions by ˜40% (FIGS. 10F and G). Citral treatment like octanal had no effect on other parameters (FIG. 11A).
Male Apoe^−/− mice (9 to 10 wks old) were fed WD for 4 weeks. Oct or Cit were diluted in sterile phosphate buffered saline (PBS) (Gibco) at a final concentration of 10 μg/g. 100 μl were injected intraperitoneally (i.p.) every 3 days for 4 weeks (12 injections total) while maintaining WD administration. PBS+0.1% DMSO (Sigma Aldrich) was injected as a vehicle control following the same protocol. Mice were sacrificed, perfused with PBS implemented with 2% heparin (Fresenius Kabi USA, LLC) and aortas removed for en face atherosclerotic lesion assessment. Mouse whole blood (heart puncture) was collected in EDTA tubes. Leukocyte blood counts were determined with HemaVet 950 (Drew Scientific). Plasma was collected from blood centrifuged at 3000 g for 15 min at 4° C. and stored at −80° C. until further analysis.
After explant, each aorta was pinned out after 4% paraformaldehyde incubation at room temperature for at least 2 hours Staining for atherosclerotic plaque was performed by incubating samples in Sudan IV. Microphotographs of the luminal (endothelial) aspect were of the aortic surface were analyzed using Photoshop CS (Adobe Systems). Atherosclerotic lesion size measurement was performed by blinded investigators using Image-Pro Premier software (Media Cybernetics).

Structure (SMILES): CC(C)=CCCC(C)=CC=O [citral]
- reduction of atherosclerotic lesion size (Apoe−/− mice on WD 8 weeks, citral 10 μg/g i.p. every 3 days, 12 injections over last 4 weeks): ~50% and ~40%
- atherosclerotic lesions, % of the aortic area (Apoe−/− mice on WD, citral 10 mg/kg i.p., 12 injections, untreated ~8%, P<0.02): ~5%
- atherosclerosis in mice: protected mice from atherosclerosis

Structure (SMILES): CCCCCCCC=O [octanal]
- lesion size, en face staining of aortic arches (Apoe−/− mice on WD 8 weeks, octanal 10 μg/g i.p., 12 injections over last 4 weeks): more than doubled
- atherosclerosis in mice: exacerbated atherosclerosis
